Source: US20120053076A1, “METHODS FOR IDENTIFICATION” (Cambridge Enterprise Limited, priority 2009, published 2012)
pEC50: −log10 of the molar value. Read-outs that look alike come from different tables or passages of the source.

Legend:
[1] = target: T1, sstr2 (Homo sapiens, UniProt P30874); assay: Equilibrium binding of [3H]-BN83250 to THP-1 cells; settings: competition with [3H]-BN83250
T1 construct: with 1×10^6 THP-1 cells in Gey's Balanced Salt Solution; endogenous in cells; host or cells: THP-1 cells (whole cells, 4° C.)
T1 sequence (P30874 whole entry): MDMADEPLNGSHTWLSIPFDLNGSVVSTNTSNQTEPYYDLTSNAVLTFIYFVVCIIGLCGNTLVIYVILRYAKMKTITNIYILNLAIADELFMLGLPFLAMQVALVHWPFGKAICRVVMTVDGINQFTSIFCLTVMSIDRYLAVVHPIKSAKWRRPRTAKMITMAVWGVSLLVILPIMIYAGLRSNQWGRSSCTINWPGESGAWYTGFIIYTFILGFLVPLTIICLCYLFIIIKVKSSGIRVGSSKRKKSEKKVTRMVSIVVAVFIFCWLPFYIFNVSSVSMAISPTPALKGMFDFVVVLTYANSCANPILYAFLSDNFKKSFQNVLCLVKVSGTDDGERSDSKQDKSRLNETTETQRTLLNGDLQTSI
Protocol: Methods: [^3H]-BN83250 was synthesesized from (S,E)-3-(2′,2′-dimethyldodec-4′-enoylamino)-caprolactam by catalytic hydrogenation using tritium gas over a palladium catalyst (CRB Ltd, Cleveland, UK), yielding the tritiated product at a concentration of […] in ethanol with a specific activity of 220 Ci/mmol. The (S,E)-3-(2′,2′-dimethyldodec-4′-enoylamino)-caprolactam was prepared as follows: (S,S)-3-amino-caprolactam hydro-pyrrolidine-5-carboxylate (10 mmol) and Na2CO3 (30 mmol) in water (30 ml) were added to a solution of 2,2-dimethyl-dodec-4-enoyl chloride (10 mmol) in dichloromethane (30 ml) at ambient temperature and the reaction was stirred for 12 hours. The organic layer was then separated and the aqueous phase was extracted with additional dichloromethane (2×25 ml). The combined organic layers were dried over Na2CO3 and reduced in vacuo. The residue was purified by silica column chromatography (1:1 EtOAc:hexanes to EtOAc) to give […]-3-(2′,2′-dimethyl-dodec-4′-enoyl)amino-caprolactam as a colourless oil (2.12 g, 63%). The radiolabelled compound was stored in the dark at 4° C. until required. Prior to use the specific activity was adjusted by addition of unlabelled BN83250.
For the analysis of binding, individual reactions were set up (in triplicate for each condition), with 1×10^6 THP-1 cells in Gey's Balanced Salt Solution, 10 nM [^3H]-BN83250 (at 50 Ci/mmol) and various concentrations of (S)-3(2′2′-dimethylpropionoylamino)-tetrahydropyridin-2-one (10 pM to 10 μM). Excess (100 μM) unlabelled BN83250 was used to determine the level of non-specific binding. After 2 hours at 4° C. (conditions previously shown to achieve equilibrium binding, and which prevent uptake of the radioligand that would result in an over-estimate of binding) excess label was washed away by centrifugation (3 washes with 5 ml of Gey's Balanced Salt Solution) and the bound radioactivity was determined by scintillation counting of the solubilised cell pellet.

[2] = tested on: fetal rat pituicytes; assay: Rat pituicyte GH suppression assay; type: cell-based
Text: (§1) Two different assays for “classical” sstr2 functions were adopted: (1) cultured foetal rat pituitary cells secreted growth hormone which is inhibited by sstr2 agonists in a dose-dependent fashion and (2) selected glucose-sensitive sub-clones of the human Panc-1 cell line secrete insulin which is inhibited by sstr2 agonists in a dose-dependent fashion.
Methods: Cultures of fetal rat pituicytes were established exactly as previously described (Murray et al. (2004) J. Clin. Endocrinol. Metab. 89:3027-32) by enzymatic dispersion. After 48 hrs in low glucose DMEM plus 10% FCS, cells in 48 well plates (5×10^4 cells per well) were washed for 4 hrs in serum-free DMEM and then incubated with test agents at various concentrations for a further 24 hrs in serum-free DMEM. At the end of this period, the conditioned medium was harvested, any cell debris removed by centrifugation and assayed for GH using a commercially available ELISA (Linco; cat# EZRMGH-45K) in accordance with the manufacturer's instructions.
(§2) Results were reported as the mean±SD, expressed as the fold change from cells in the presence of vehicle only.

[3] = tested on: Panc-2H4 cells; assay: Human Panc-2H4 insulin suppression assay; type: cell-based
Text: as §1
Glucose-sensitive sub-clones of the human Panc-1, a cell line derived from a pleiomorphic epithelioid carcinoma of the exocrine pancreas, were obtained essentially as described by Hamil et al. (2008) Biomed. Sci. Instrum. 44:441-6. Briefly, Panc-1 cells were subcultured in 24 well plates, and the medium was supplemented with an additional 5% glucose. […] The resulting sub-lines were then tested for glucose sensitivity by preparing wells of a 96-well plate (5×10^4 cells per well) which were then exposed to cultured medium containing a range of glucose concentrations (low glucose DMEM, DMEM, DMEM+1% glucose, DMEM+2.5% glucose and DMEM+5% glucose). After 24 hrs incubation, the conditioned medium was collected and assayed for insulin secretion by ELISA (Linco; cat# EZHI-14K) in accordance with the manufacturer's instructions.
Further 96 well plates were prepared using Panc-2H4 (5×10^4 cells per well) in DMEM. After 24 hrs, the medium was switched to DMEM+5% glucose containing various test agents at various concentrations (triplicate wells per condition). After a further 24 hrs, the conditioned medium was harvested and the concentration of insulin was determined by ELISA as described above.
as §2

[4] = tested on: Jurkat T cells; assay: SDF-1α induced migration of parental Jurkat T cells; type: cell-based, human
Protocol: Results: The level of the SDF-1α, receptor CXCR4 was similar on Jurkat-D3B and the parental Jurkat T cell line. Furthermore, the Jurkat-D3B cells responded to SDF-1α in a Transwell® chemotaxis assay (see Example 1 for the methodology employed) over a similar concentration range to the parental cell line.
Jurkat T cells and Jurkat-D3B cells were induced to migrate in response to 100 ng/ml SDF-1α (R&D systems; the concentration of SDF-1α which induced maximal cell migration in both lines). The BSCI BN83250 was then added at various concentrations between 0 nM and 1000 nM (each in triplicate) to both the upper and lower compartments (at the same concentration in each compartment, so as not to create a gradient of BSCI concentration). DMSO (1% final concentration) was used as the vehicle, and was present in all wells at equal concentration.

[5] = Table 3, suppression compared to vehicle

Row | Molecule | Hill Slope [1] | Inhibition of GH release, in words [2] | pEC50 ([3]; Homo sapiens, Table 3, read-out: Human Panc-2H4 insulin suppression assay ED50) | pEC50 ([2]; Table 3, read-out: Rat pituicyte GH suppression assay ED50) | Rat pituicyte GH suppression assay Max effect [2, 5] | Inhibition of SDF-1α induced migration of Jurkat T cells, in words [4] | pEC50 ([3]; Table 3, read-out: Human Panc-2H4 insulin suppression assay ED50) | Human Panc-2H4 insulin suppression assay Max effect [3, 5] | Panc-2H4 insulin suppression assay (“classical” target) Max Effect ([3]; Table 5) | pEC50 ([3]; Table 5, read-out: Panc-2H4 insulin suppression assay (“classical” target) ED50)
1 | CC(C)(C)C(=O)N[C@H]1CCCNC1=O [Valerolactam, (S)-3-(2′,2′-dimethylpropionoylamino)-tetrahydropyridin-2-one] | approximately −1.0 | inhibited GH release only at much higher concentrations | < 6.00 | – | – | – | – | – | – | –
2 | (S)-3-(2′,2′-dimethyldodecanoyl)amino-caprolactam [BN83250] | – | inhibited GH release only at much higher concentrations | – | 6.49 | 63% | little or no effect | 6.00 | 28% | 28% | 6.00
